Here are results for four molecules from US20100168228A1, “NOVEL CHEMOTHERAPEUTIC AGENTS AGAINST INFLAMMATION AND CANCER” (RELIANCE LIFE SCIENCES PVT. LTD., priority 2006, published 2010).

In assay [1] the test system is TNFα. The experiment in a line: Bioassay of TNFα production by LPS activated RAW 264.7 macrophages using L929 cell line. In kind it is cell-based. The note with it: Mus musculus; L929 + ActD + supernatant from LPS + compound (10 μM) treated RAW 264.7 macrophage; crystal violet; mean ± S.D. of triplicate; read-out: PERCENTAGE CELL SURVIVAL ± S.D. The method, then:
Measurement of TNFα in culture medium or supernatant is performed using immunoassay and bioassay. Bioassay was used for the measurement of bioactive TNFα production in the culture medium.
TNFα secretion into the medium by LPS activated macrophage was assayed using L929 tumorigenic murine cells (ATCC) specifically sensitive to TNFα. L929 cell cytotoxicity assay was performed by a modified method (Sano et al., The Journal of Immunology, 1999, 163: 387-395 The Journal of Immunology, 1999, 163: 387-395) based on that described elsewhere (Flick D A, Gifford G E. J Immunol Methods. 1984 Mar. 30; 68(1-2): 167-175). Briefly, the L929 cells (log phase cells) were seeded into a flat bottom 96 well plates (6×10^4/well) in 100 μl volume of RPMI 1640 containing 2% FCS and incubated overnight at 37° C. in a 5% CO2 incubator. A working dilution of the culture supernatant collected from LPS (200 ng/ml) activated macrophage in a volume of 100 μl per well was first tested to obtain 70-75% cytotoxicity equivalent to […] of recombinant TNFα standard to the TNFα sensitive L929 cell line. After incubation of the L929 cells appropriate fixed dilution of the culture supernatant collected from the compound treated (10 μM) wells, containing the LPS stimulated macrophages in a volume of 100 μl with 2 μg/ml Actinomycin D (Act D) was taken and added to the L929 cells and the cells were incubated at room temperature for 15 min followed by 18 h incubation at 37° C. overnight with 5% CO2. On the next day the medium was removed and the cells were stained with 0.2% (w/v) crystal violet for 10 minutes. The wells were gently rinsed with water, and 33% acetic acid (100 μl/well) was added to extract the retained crystal violet. The absorbance at 570 nm was finally measured.
Tumor necrosis factor-α can cause direct cytotoxicity to the lung fibroblast cell line (L929). Bioassay of TNF α is designated on the basis of this cytotoxicity of TNF α, which can be used for the identification of murine TNF α activity in tissue culture supernatants. Culture supernatant collected from the synthetic molecules treated well containing LPS stimulated macrophage modulated the extent of cytotoxicity to the L929 cells (see Table 1).

For assay [2], the system named is RAW 264.7 cells. Briefly: Nitrite quantification (Griess) in LPS stimulated macrophages. In kind it is cell-based, mouse. The note with it: RAW 264.7 + LPS (200 ng/ml) + 10 μM compound, 24 h; LPS + DMSO control 14.560, basal 0.782. On the procedure:
NO2^− accumulation was used as an indicator of Nitric Oxide (NO) production in the medium as described previously (Green et al., 1982 Anal Biochem 126, 131-138). […] The isolated supernatants were mixed with an equal volume of Griess reagent (1% sulfanilamide, 0.1% naphthylenediamine dihydrochloride, and 2% phosphoric acid) and incubated at room temperature for 15 min. NaNO2 was used to generate a standard curve, and nitrite production was determined by measuring the optical density at 540 nm.
To estimate the anti-inflammatory effects of all the synthetic molecules listed in this study, we measured the accumulation of nitrite, the stable metabolite of NO, in the culture media using Griess reagent.
To investigate the effect of CAMVE on NO production, we measured the accumulation of nitrite, the stable metabolite of NO, in the culture media using Griess reagent. To investigate the effect of CAMVE on NO production, Raw 264.7 cells, pretreated with indicated concentrations of CAMVE for 1 h were incubated with LPS (250 ng/ml) for 24 h.

Consider `C/C=C/c1ccc(OC(=O)/C=C/c2ccc(O)cc2)c(OC)c1` [compound 23, 2-methoxy-4-[(1E)-prop-1-en-1-yl]phenyl (2E)-3-(4-hydroxyphenyl)acrylate], for which the viability at 10 µM in assay [1] was 51.2 ± 1.55%. Besides, in assay [2], the “CONCENTRATION OF NITRITE μM ± SD” value is 8.338 ± 0.204 µM.
Turning to `COC(=O)/C=C/c1cc(OC)c2c(c1)[C@@H](C(=O)OC)[C@H](c1ccc(OC(=O)/C=C/c3ccc(O)cc3)c(OC)c1)O2` [compound 24], the viability at 10 µM in assay [1] was determined as 50.3 ± 1.28%. For the same molecule, in assay [2], the “CONCENTRATION OF NITRITE μM ± SD” value was 8.582 ± 0.214 µM.
The matching figures for `COC(=O)c1ccc(OC(=O)c2cc(O)c(O)c(O)c2)c(OC)c1` [compound 26, 2-methoxy-4-(methoxycarbonyl)phenyl 3,4,5-trihydroxybenzoate]: 58.8 ± 2.15% and 6.138 ± 0.567 µM.
`COc1cc([C@@H]2Oc3c(O)cc(/C=C/C(=O)O)cc3[C@H]2C(=O)O)ccc1O` [compound 28, 5-[(E)-2-carboxyvinyl]-7-hydroxy-2β-(4-hydroxy-3-methoxyphenyl)-2,3-dihydro-1-benzofuran-3α-carboxylic acid]: the viability at 10 µM in assay [1] was found to be 66.4 ± 1.11%. In assay [2], the “CONCENTRATION OF NITRITE μM ± SD” value was found to be 7.604 ± 0.204 µM.
